Reference: patent US8030345B2, “Tricyclic pyrazole derivatives as cannabinoid receptor modulators” (Cadila Healthcare Limited, priority 2004, dated 2011)

Test system: rat
Experiment: Intake of 5% sucrose solution in rat model
Format: in vivo
Settings: intake of 5% sucrose solution in animal model (rat)
Source text: Compounds of the present invention in the cAMP accumulation model, antagonizes the WIN-55, 212-2 inhibition of forskolin-induced cAMP accumulation in hCB1-CHO cells [J Pharmacol. Exp Ther., 1998, 284, 291-297]. In a mouse vas deferens preparation, representative compounds cause rightward shift of the WIN-55, 212-2 concentration-response curve (Eur. J. Pharm. 1995, 284, 241-247). Representative compounds of the present invention have shown decrease in sucrose solution intake in rat model (Table 1) [Psychopharmacology, 1997, 132, 104-106].

SMILES	Reduction in sucrose solution consumption w.r.t. control animals
O=C(NN1CCCCC1)c1nn(-c2ccc(Cl)cc2Cl)c2c1CCCc1sc(Cl)cc1-2 [Compound 16]	−13.2 ± 15.7
O=C(NN1CCC(O)CC1)c1nn(-c2ccc(Cl)cc2Cl)c2c1CCOc1cc(Cl)ccc1-2 [Compound 3]	−18.9 ± 14.0
O=C(NN1CCOCC1)c1nn(-c2ccc(Cl)cc2Cl)c2c1CCOc1cc(Cl)ccc1-2 [Compound 6, 8-chloro-1-(2,4-dichloro-phenyl)-4,5-dihydro-1H-6-oxa-1,2-diaza-benzo [e] azulene-3-carboxylic acid morpholine-4-yl-amide]	−24.9 ± 8.9
O=C(NN1CCCCC1)c1nn(-c2ccc(Cl)cc2)c2c1CCOc1cc(Cl)ccc1-2 [Compound 8, 8-chloro-1-(4-chloro-phenyl)-4,5-dihydro-1H-6-oxa-1,2-diaza-benzo [e] azulene-3-carboxylic acid piperidin-1-ylamide]	−30.4 ± 4.3
O=C(NN1CC2CCCC2C1)c1nn(-c2ccc(Cl)cc2Cl)c2c1CCOc1cc(Cl)ccc1-2 (centres unmarked) [Compound 5, 8-chloro-1-(2,4-dichloro-phenyl)-4,5-dihydro-1H-6-oxa-1,2-diaza-benzo [e] azulene-3-carboxylic acid (hexahydro-cyclopenta[c]pyrrol-2-yl)-amide]	−23.2 ± 11.4
